# Experimental data taken from patent US4497811A, “1-Oxadethiacephalosporin compound and antibacterial agent containing the _same” (priority 1983, dated 1985).
# Counter-ions that a name gives are not always drawn.
# Columns and labels:
# [1] = tested on: gram-positive and gram-negative bacteria; assay: Antibacterial spectra in vitro (MIC), summary in words; assay type: cell-based; settings: compared to cefroxadine
# Source text: Minimum inhibitory concentrations (MIC.) (mcg/ml) as determined by serial
# dilution method on agar plates
# Escherichia coli No. 29 = assay: Curative effect by oral administration in mice infected intraperitoneally with Escherichia coli No. 29 (survival over 7 days); assay type: in vivo; settings: for number of surviving mice: three mice in each group, 7 days
# Source text: Thus, some tests were made to evaluate the curative effects of the new compound of this invention in therapeutic treatment of bacterial infections when the new compound was orally given to mice (average body weight 20 g) which had been infected with Escherichia coli No. 29. In these tests for therapeutic treatment of the bacterial infection, mice (three mice in each group) were inoculated intraperitoneally with Escherichia coli No. 29 at an inoculmn dose of 3.25×10^5 CFU/mouse and then immediately treated by oral administration of the test compound. For the subsequent 7 days, the mice were kept under observation and the number of surviving mice was counted.
SMILES,antibacterial activity against resistant strains of bacteria [1],antibacterial spectrum (range) [1],number of surviving mice (Escherichia coli No. 29; 0.1 mg/mouse) [mice],number of surviving mice (Escherichia coli No. 29; 1 mg/mouse) [mice],number of surviving mice (Escherichia coli No. 29; 5 mg/mouse) [mice],number of surviving mice (Escherichia coli No. 29; 10 mg/mouse) [mice],curative effects in therapeutic treatment of the bacterial infection in vivo (Escherichia coli No. 29; mice infected with Escherichia coli No. 29)
"CSC1=C(C(=O)O)N2C(=O)C(NC(=O)Cc3cccs3)C2OC1 (stereo not shown) [Example 1(b), 7-(2-thienylacetamido)-1-oxa-1-dethia-3-methylthio-3-cephem-4-carboxylic acid]",effective and higher antibacterial activity against resistant strains of bacteria than cefroxadine,wider range of the antibacterial spectrum than cefroxadine,,,,,
"CSC1=C(C(=O)O)N2C(=O)C(NC(=O)Cc3ccsc3)C2OC1 (stereo not shown) [Example 2(b), 7-(3-thienylacetamido)-1-oxa-1-dethia-3-methylthio-3-cephem-4-carboxylic acid]",effective and higher antibacterial activity against resistant strains of bacteria than cefroxadine,wider range of the antibacterial spectrum than cefroxadine,,,,,
"CSC1=C(C(=O)O)N2C(=O)C(NC(=O)C(C(=O)O)c3cccs3)C2OC1 (stereo not shown) [Example 3(b), 7-[2-(2-thienyl)-2-carboxyacetamido]-1-oxa-1-dethia-3-methylthio-3-cephem-4-carboxylic acid]",effective and higher antibacterial activity against resistant strains of bacteria than cefroxadine,wider range of the antibacterial spectrum than cefroxadine,,,,,
"CSC1=C(C(=O)O)N2C(=O)C(NC(=O)C(C(=O)O)c3ccsc3)C2OC1 (stereo not shown) [Example 4(b), 7-[2-(3-thienyl)-2-carboxyacetamido]-1-oxa-1-dethia-3-methylthio-3-cephem-4-carboxylic acid]",effective and higher antibacterial activity against resistant strains of bacteria than cefroxadine,wider range of the antibacterial spectrum than cefroxadine,,,,,
"CO/N=C(\C(=O)NC1C(=O)N2C(C(=O)O)=C(SC)COC12)c1csc(N)n1 (stereo not drawn) [Example 6(b), 7-[2-(2-amino-4-thiazolyl)-2-methoxyiminoacetamido]-1-oxa-1-dethia-3-methylthio-3-cephem-4-carboxylic acid trifluoroacetate (syn-isomer)]",,,1,3,3,3,better curative effects in therapeutic treatment of the bacterial infection in vivo
